The values that follow come from patent US11180518B2, “Phenyl-heterocycle-phenyl derivatives for use in the treatment or prevention of melanoma” (MAX-PLANCK-GESELLSCHAFT ZUR FÖRDERUNG DER WISSENSCHAFTEN …, priority 2017, dated 2021).

Where only a bound is given, the exact number is not on record here.

Data set [1] has as its system α-synuclein-expressing WM983-B human metastatic melanoma cells. The experiment in a line: Test screening of DPP compounds in human metastatic melanoma cells (cell death read-out). The class given is cell-based. The conditions noted are these: WM983B, second 10 μM dose at 48 hr, serum-free culture medium, read at 48 h / 96 h. The method, then:
To determine the impact of the DPP compounds on high-level α-synuclein-expressing human melanoma cells, WM983-B melanoma cells were plated, in duplicate, in 12-well tissue culture plates in cell culture medium containing 10% fetal bovine serum. Twenty-four hours later, the cells were rinsed three-times with serum-free medium, followed by addition of serum-free medium containing each DPP compound at a dose of 10 μM. Following incubation of the DPP compound-treated cells at 37° C. for 48 hr, each DPP compound was added to the cells at a second 10 μM dose. Using light microscopy, changes in the cells' morphology>detachment of the cells from the cell culture dish/floating in the cell culture medium>cell death were recorded on a scale of 0, +, ++, +++, ++++ at the 24 hr, 48 hr, 72 hr and 96 hr time-point following addition of DPP compound.
The DPP compounds were added to α-synuclein-expressing WM983-B human metastatic melanoma cells.

Data set [2] relates to WM1158 melanoma cells. The experiment in a line: Melanoma cell proliferation analysis. The settings on record: over 96 hr, replenishment at 48 hr. The class given is cell-based, human. The text has this:
(§1) To assess the possible impact of anle138b as well as anle138c on the different melanoma cell lines, WM983-A, WM983-B and SK-MEL-5, we treated them with increasing doses of either compound, dissolved in dimethyl sulfoxide (DMSO), and added to serum-free culture medium. […] We also observed that treatment with anle138b caused a more rapid morphological change than anle138c. To determine whether the effect of the two anle compounds was related to the amount of α-synuclein produced by the cells, we compared the proliferation of the (VGP) WM983-A high-level and the (RGP/VGP) WM1158 low-level α-synuclein-producing melanoma cells over a period of 96 hr, with replenishment of each anle compound at 48 hr (FIGS. 8A and B).
(§2) 10 or 30 mM stock solutions of anle138b or anle138c were made in DMSO. Since anle138b as well as anle138c bind strongly to FBS, melanoma cells, plated for 24 hr in tissue-culture medium containing 10% FBS, were rinsed three times with serum-free medium prior to addition of anle138b, anle138c, or an equivalent volume of DMSO only in serum-free medium. Forty-eight hours later, the cell culture medium was removed, followed by addition of an equivalent dose of anle138b or anle138c, or DMSO only in serum-free culture medium. […] Proliferation of melanoma cells that had received DMSO only, or were treated with anle138b was determined by counting the cells with a hemocytometer.

Data set [3] relates to high-level α-synuclein expressing cell lines WM983-B. The experiment in a line: Initial screen of sixteen compounds from the DPP library. The data set is classed as cell-based, human.
Data set [4] concerns WM1158 melanoma cells. The experiment in a line: Cell morphology (phase-contrast). The data set is classed as cell-based, human. The conditions noted are these: 10 μM, up to 96 hr, replenishment at 48 hr.
Source text: as §1, §2
(§3) Cell morphology. Phase-contrast or DIC images of the melanoma cells that had been treated for various times with anle138b or anle138c, or had received DMSO only were captured with a 10×NA 0.6 objective on a Zeiss Axiovert 100 microscope with a Hamamatsu Orca charge-coupled device (CCD) camera. At least four images, at random areas per culture dish, were recorded for each time point.

Data set [5] deals with SK-MEL-5 melanoma cells. The experiment in a line: Cell morphology (phase-contrast). The data set is classed as cell-based, human. The settings on record: increasing doses, serum-free medium; time- and dose-dependent.
Source text: as §1, §2, §3

The test system of data set [6] is WM983-B melanoma cells. The experiment in a line: Cell morphology (phase-contrast). The data set is classed as cell-based, human. The settings on record: increasing doses, serum-free medium; time- and dose-dependent.
Source text: as §1, §2, §3

For data set [7], the system named is SK-MEL-5 melanoma cells. The experiment in a line: Autophagy: LC3 immunofluorescence. The conditions noted are these: compared with WM983-B cells. The class given is cell-based, human. The method, then: (§4) We observed a clear effect of the anle compounds on the autophagy pathway of the melanoma cells. […] Following addition of anle138c, the effect was seen later with levels of 8% at 24 hr and 78% after 96 hr.
(§5) Autophagy. WM983-B and SK-MEL-5 cells that for 24 or 48 hr were treated with anle138 or had received DMSO only were fixed for 20 min with 3.7% PFA, permeabilized, blocked, and probed with an anti-LC3B [clone 2G6] antibody (nanoTools Antikörpertechnik GmbH & Co. KG, Teningen, Germany), followed by a donkey anti-mouse Alexa-488 secondary antibody and Draq5 DNA counterstain. Confocal image stacks were obtained with a 63×NA 1.2 objective on a Zeiss LSM 510 Meta confocal microscope.

In data set [8] the test system is WM983-B melanoma cells. The experiment in a line: Autophagy: LC3 immunofluorescence. The class given is cell-based, human. How it is done: as §4, §5
The test system of data set [9] is WM983-A, WM983-B, and SK-MEL-5 melanoma cell lines. The experiment in a line: Apoptosis markers in treated melanoma cells. The class given is cell-based, human. An excerpt: Although the morphological changes in the WM983-A, WM983-B, and SK-MEL-5 melanoma cell lines following addition of anle138b occurred quite rapidly, they were not indicative of the cells undergoing apoptosis. […] Differential interference contrast (DIC) images of the morphology of the anle138b-treated WM983-B, SK-MEL-5, and WM1158 melanoma cells from the same panels are shown in FIG. 9.

The nature of another data set: Binding to FBS. The class given is in vitro ADME.
The target in another data set is α-synuclein monomers (Homo sapiens, UniProt P37840). The conditions noted are these: cited from earlier work.

Regarding `Brc1cccc(-c2cc(-c3ccc4c(c3)OCCCO4)n[nH]2)c1`, the cytotoxicity at 10 µM in data set [1] came out at 100%.

With `Brc1cccc(-c2cc(-c3ccc4c(c3)OCCO4)n[nH]2)c1`, the cytotoxicity at 10 µM in data set [1] was 100%.

For `Brc1cccc(-c2nc(-c3ccc4c(c3)OCCO4)co2)c1`, in data set [1], the cytotoxicity at 10 µM stood at 100%.

Turning to `Brc1cccc(-c2cc(-c3ccc4nccnc4c3)n[nH]2)c1`, the cytotoxicity at 10 µM in data set [1] amounted to 100%.

Take `CN1CCOc2cc(-c3cc(-c4cccc(Br)c4)[nH]n3)ccc21`: in data set [1], the cytotoxicity at 10 µM came out at 100%.

On to `COc1ccc(-c2cc(-c3cccc(F)c3)on2)cc1OC`, for which, in [1], the cytotoxicity at 10 µM was determined as 100%.

In the case of `Oc1ccc(-c2cc(-c3cccc(F)c3)on2)cc1O`, the cytotoxicity at 10 µM in [1] amounted to 100%.

As to `Oc1ccc(-c2noc(-c3cccc(F)c3)n2)cc1O`, the cytotoxicity at 10 µM in data set [1] came out at 100%.

For `Brc1cccc(-c2c[nH]c(-c3ccc4c(c3)OCO4)n2)c1`, the cytotoxicity at 10 µM in data set [1] turned out to be 100%.

As for `FCCn1nc(-c2cccc(Br)c2)cc1-c1ccc2c(c1)OCO2`, in data set [1], the cytotoxicity at 10 µM was 100%.

Take `Nc1cccc(-c2ncc(-c3ccc(Cl)c(Cl)c3)o2)c1`: the cytotoxicity at 10 µM in data set [1] amounted to 100%.

As for `COc1cccc(-c2c[nH]c(-c3cccc(Br)c3)n2)c1`, the cytotoxicity at 10 µM in data set [1] is 100%.

On to `Clc1cccc(-c2cc(-c3ccc4c(c3)OCCO4)n[nH]2)c1`, for which the cytotoxicity at 10 µM in data set [1] was determined as 100%.

Regarding `CC1(C)CCc2cc(-c3cc(-c4cccc(Br)c4)[nH]n3)ccc2O1`, in [1], the cytotoxicity at 10 µM came to 100%.

With `Clc1cccc(-c2cc(-c3ccc4c(c3)OCO4)n[nH]2)c1`, the cytotoxicity at 10 µM in data set [1] was 100%.

Consider `CN(C)c1ccc(-c2cc(-c3cccc(F)c3)on2)cc1`, for which the cytotoxicity at 10 µM in [1] was 50 to 90%.

In the case of `Oc1ccc(-c2cc(-c3cccc(F)c3)[nH]n2)cc1O`, the cytotoxicity at 10 µM in data set [1] is 50 to 90%.

For the compound `Oc1cccc(-c2cc(-c3cccc(Cl)c3)[nH]n2)c1`, the cytotoxicity at 10 µM in data set [1] lay in the range of 50 to 90%.

In the case of `Cn1nc(-c2ccc3c(c2)OCO3)cc1-c1cccc(Br)c1`, in [1], the cytotoxicity at 10 µM lay in the range of 50 to 90%.

Take `Cc1ccc(Br)cc1-c1nc(-c2cccc(OC(F)(F)F)c2)no1`: the cytotoxicity at 10 µM in data set [1] lay in the range of 50 to 90%.

For the compound `Brc1cccc(-c2cc(-c3ccc4ccoc4c3)n[nH]2)c1`, the cytotoxicity at 10 µM in data set [1] was 50 to 90%.

For the compound `FC1(F)Oc2ccc(-c3cc(-c4cccc(Br)c4)[nH]n3)cc2O1`, in data set [1], the cytotoxicity at 10 µM was in the range of 20 to 50%.

For `Brc1cccc(-c2cc(-c3ccc4ccccc4c3)n[nH]2)c1`, the cytotoxicity at 10 µM in data set [1] was 20 to 50%.

Consider `Nc1ccc(-c2cc(-c3cccc(Cl)c3)[nH]n2)cc1`, for which the cytotoxicity at 10 µM in data set [1] fell in the range of 20 to 50%.

Turning to `COc1ccc(-c2noc(-c3cccc(Cl)c3)n2)cc1`, the cytotoxicity at 10 µM in data set [1] fell in the range of 20 to 50%.

As for `Cn1ccc2cc(-c3cc(-c4cccc(Br)c4)[nH]n3)ccc21`, the cytotoxicity at 10 µM in data set [1] lay within 20 to 50%.

On to `Fc1cccc(-c2cc(-c3ccc4c(c3)OCO4)n[nH]2)c1`, for which the cytotoxicity at 10 µM in data set [1] is under 20%.

Turning to `CN(C)c1ccc(-c2cc(-c3cccc(Br)c3)no2)cc1`, the cytotoxicity at 10 µM in [1] was under 20%.

`Brc1cccc(-c2nc(-c3ccc4c(c3)OCO4)no2)c1`: the cytotoxicity at 10 µM in [1] was under 20%.

Turning to `Clc1cc(Cl)cc(-c2nc(-c3ccc4c(c3)OCO4)no2)c1`, in data set [1], the cytotoxicity at 10 µM was under 20%.

Take `Oc1ccc(-c2cc(-c3cccc(Br)c3)[nH]n2)cc1O` [anle138c]: the proliferation entry in the data set on WM1158 melanoma cells [2] is reported as “reduced proliferation only after 48 hr”. Besides, the “effect on WM983-B cells in initial screen” value in data set [3] was “significantly affected”. The morphology result in the data set on WM1158 melanoma cells [4] is given as “did not show a significantly altered morphology”. Also, the morphological changes result with SK-MEL-5 melanoma cells [5] and in the data set with WM983-B melanoma cells [6] was “major morphological changes” in each case. In the data set with SK-MEL-5 melanoma cells [7], the “levels of punctuate LC3 loci” value is “even higher levels”. In addition, the “cells with punctuate upregulation of LC3” value in the data set on WM983-B melanoma cells [8] (24 hr, cells still attached) is listed as 8%; in the data set with WM983-B melanoma cells [8] (96 hr) it was 78%. For the same compound, the “cleaved caspase 3 (apoptosis)” value in data set [9] was “nor were they positive for cleaved caspase 3”. Also, the “binding to FBS” value in the data set “Binding to FBS” was “bind strongly”. For the same compound, the “binding to α-synuclein monomers” value at α-synuclein monomers was “Neither of these two compounds binds to α-synuclein monomers”.

`CN(C)c1ccc(-c2cc(-c3cccc(Br)c3)[nH]n2)cc1` [anle253b, 5-(3-Bromophenyl)-3-(4-dimethylaminophenyl)-1H-pyrazole]: the “effect on WM983-B cells in initial screen” value in [3] is recorded as “significantly affected”.

For the compound `Oc1ccc(-c2cc(-c3cccc(Br)c3)[nH]n2)cc1O` [drawing 77], the cytotoxicity at 10 µM in data set [1] turned out to be 100%.

As for `CN(C)c1ccc(-c2cc(-c3cccc(Br)c3)[nH]n2)cc1` [drawing 79], the cytotoxicity at 10 µM in [1] amounted to 100%.
